Assay results taken from BindingDB's records for doi:10.7270/Q2W957N3 (Burnham Center For Chemical Genomics, 2010).

The compounds below were run against Alkaline phosphatase, placental type (Homo sapiens, UniProt P05187) (assay: PLAP enzyme inhibitors, dose response, selectivity assay for human IAP inhibitor project, biochemical, uHTS hits, luminescence (AID 488892)).
Chain of Alkaline phosphatase, placental type (P05187 whole entry, looked up): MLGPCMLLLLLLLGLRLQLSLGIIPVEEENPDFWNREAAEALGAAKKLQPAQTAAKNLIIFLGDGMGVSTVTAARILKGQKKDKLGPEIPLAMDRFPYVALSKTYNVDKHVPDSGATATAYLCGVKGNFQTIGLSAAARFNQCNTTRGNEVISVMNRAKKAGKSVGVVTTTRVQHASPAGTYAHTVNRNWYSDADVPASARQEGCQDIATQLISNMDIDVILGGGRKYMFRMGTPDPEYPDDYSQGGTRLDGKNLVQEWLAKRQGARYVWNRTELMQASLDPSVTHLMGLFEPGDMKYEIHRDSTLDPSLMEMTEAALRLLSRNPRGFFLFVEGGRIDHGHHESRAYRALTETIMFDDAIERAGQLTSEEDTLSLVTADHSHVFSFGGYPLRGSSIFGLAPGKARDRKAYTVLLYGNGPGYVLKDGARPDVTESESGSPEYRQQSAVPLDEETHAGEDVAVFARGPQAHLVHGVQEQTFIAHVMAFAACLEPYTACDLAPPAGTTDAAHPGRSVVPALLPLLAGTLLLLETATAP

| IC50 [µM] | SMILES |
| --- | --- |
| 35.1 | CCOC1=CC(=Cc2c(C)[nH]oc2=O)C=C(Br)C1=O [4-[(Z)-(3-bromo-5-ethoxy-4-oxo-1-cyclohexa-2,5-dienylidene)methyl]-3-methyl-2H-isoxazol-5-one] |
| > 100 | CC(N=Nc1ccccc1[N+](=O)[O-])c1ccc([N+](=O)[O-])cc1 (stereo not drawn) |
| 37.8 | C=c1[nH]n(Cc2ccccc2)c(=O)c1=Cc1ccc(N(C)C)cc1 [(4Z)-4-[[4-(dimethylamino)phenyl]methylidene]-5-methyl-2-(phenylmethyl)-3-pyrazolone] |
